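Each compound was tested at five concentrations against cells in 96-well plates for 48 hours. At the GI50, growth is halved.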 Calls of active or inactive are those of the source. Cut-off read from the data, not from the text of the source: active = GI50 up to about 1.1 µM and inactive = higher.
Assays:
Assay in all cases: inhibition of tumour cell growth, NCI panel, 48 h
U-251 = test system: U-251
NCI-H226 = test system: NCI-H226
M14 = test system: M14
EKVX = test system: EKVX
DMS-114 = test system: DMS-114
COLO 205 = test system: COLO 205
HCT-15 = test system: HCT-15
786-0 = test system: 786-0
HCC 2998 = test system: HCC 2998
KM12 = test system: KM12
SNB-19 = test system: SNB-19
SF-268 = test system: SF-268
IGROV-1 = test system: IGROV-1
SK-MEL-28 = test system: SK-MEL-28
SN12C = test system: SN12C
HOP-62 = test system: HOP-62
HOP-18 = test system: HOP-18
HOP-92 = test system: HOP-92
CCRF-CEM = test system: CCRF-CEM
SK-OV-3 = test system: SK-OV-3
SNB-78 = test system: SNB-78
A549 = test system: A549
UO-31 = test system: UO-31
MOLT-4 = test system: MOLT-4
UACC-62 = test system: UACC-62
TK-10 = test system: TK-10
LXFL 529 = test system: LXFL 529
SW-620 = test system: SW-620
M19-MEL = test system: M19-MEL
UACC-257 = test system: UACC-257
NCI-H460 = test system: NCI-H460
Malme-3M = test system: Malme-3M
SF-295 = test system: SF-295
ACHN = test system: ACHN
DMS-273 = test system: DMS-273
SF-539 = test system: SF-539
OVCAR-8 = test system: OVCAR-8
HT-29 = test system: HT-29
NCI-H522 = test system: NCI-H522
OVCAR-4 = test system: OVCAR-4
HL-60 = test system: HL-60
K562 = test system: K562
SNB-75 = test system: SNB-75
OVCAR-3 = test system: OVCAR-3
CAKI-1 = test system: CAKI-1
HCT-116 = test system: HCT-116
SR = test system: SR
OVCAR-5 = test system: OVCAR-5
KM-20L2 = test system: KM-20L2
SK-MEL-5 = test system: SK-MEL-5
SK-MEL-2 = test system: SK-MEL-2
NCI-H23 = test system: NCI-H23
DLD-1 = test system: DLD-1
RXF 393 = test system: RXF 393
XF498 = test system: XF498
A498 = test system: A498
LOX IMVI = test system: LOX IMVI
RPMI-8226 = test system: RPMI-8226

With Cc1ccc2nc3cc(C)c(=O)cc-3sc2c1 the GI50 (U-251) was 75 µM (inactive), the GI50 (NCI-H226) was 73.1 µM (inactive) and the GI50 (M14) was > 100 µM (inactive). For the same molecule, the GI50 (EKVX) was > 100 µM (inactive), the GI50 (DMS-114) was 40.7 µM (inactive) and the GI50 (COLO 205) was 94.8 µM (inactive). The GI50 (HCT-15) was 52.8 µM, the GI50 (786-0) was > 100 µM (inactive) and the GI50 (HCC 2998) was > 100 µM (inactive). The GI50 (KM12) was 54.1 µM (inactive), the GI50 (SNB-19) was > 100 µM (inactive) and the GI50 (SF-268) was 81.1 µM (inactive). The GI50 (IGROV-1) was > 100 µM (inactive), the GI50 (SK-MEL-28) was > 100 µM (inactive) and the GI50 (SN12C) was > 100 µM (inactive). The GI50 (HOP-62) was > 100 µM (inactive), the GI50 (HOP-18) was > 100 µM (inactive) and the GI50 (HOP-92) was > 100 µM (inactive). The GI50 (CCRF-CEM) was 8.95 µM (inactive), the GI50 (SK-OV-3) was > 100 µM (inactive) and the GI50 (SNB-78) was > 100 µM (inactive). The GI50 (A549) was 53.5 µM (inactive), the GI50 (UO-31) was 67.3 µM (inactive) and the GI50 (MOLT-4) was 11.8 µM (inactive). For the same molecule, the GI50 (UACC-62) was 28.7 µM (inactive), the GI50 (TK-10) was > 100 µM (inactive) and the GI50 (LXFL 529) was 78.5 µM (inactive). For the same molecule, the GI50 (SW-620) was > 100 µM (inactive), the GI50 (M19-MEL) was 16.1 µM (inactive) and the GI50 (UACC-257) was 54.6 µM (inactive). For the same molecule, the GI50 (NCI-H460) was > 100 µM (inactive), the GI50 (Malme-3M) was > 100 µM (inactive) and the GI50 (SF-295) was 94.2 µM (inactive). The GI50 (ACHN) was 57.7 µM (inactive), the GI50 (DMS-273) was > 100 µM (inactive) and the GI50 (SF-539) was > 100 µM (inactive). The GI50 (OVCAR-8) was 56 µM (inactive), the GI50 (HT-29) was > 100 µM (inactive) and the GI50 (NCI-H522) was 34.4 µM (inactive). For the same molecule, the GI50 (OVCAR-4) was 37.8 µM (inactive), the GI50 (HL-60) was 3.11 µM (inactive) and the GI50 (K562) was 13.6 µM (inactive). For the same molecule, the GI50 (SNB-75) was 18.7 µM (inactive), the GI50 (OVCAR-3) was > 100 µM (inactive) and the GI50 (CAKI-1) was 39.7 µM (inactive). The GI50 (HCT-116) was > 100 µM (inactive), the GI50 (SR) was 17 µM (inactive) and the GI50 (OVCAR-5) was > 100 µM (inactive). The GI50 (KM-20L2) was > 100 µM (inactive), the GI50 (SK-MEL-5) was 44.9 µM (inactive) and the GI50 (SK-MEL-2) was > 100 µM (inactive). The GI50 (NCI-H23) was 57.7 µM (inactive) and the GI50 (DLD-1) was > 100 µM (inactive).

For O=C1NC2C(=O)N(Cc3ccccc3)C(=O)C2N1 (configuration not stated), the GI50 (U-251) was > 100 µM (inactive), the GI50 (NCI-H226) was > 100 µM (inactive) and the GI50 (M14) was 37.8 µM (inactive). For the same molecule, the GI50 (EKVX) was > 100 µM (inactive), the GI50 (DMS-114) was > 100 µM (inactive) and the GI50 (COLO 205) was > 100 µM (inactive). The GI50 (HCT-15) was > 100 µM, the GI50 (786-0) was > 100 µM (inactive) and the GI50 (HCC 2998) was > 100 µM (inactive). The GI50 (KM12) was > 100 µM (inactive), the GI50 (SNB-19) was > 100 µM (inactive) and the GI50 (SF-268) was > 100 µM (inactive). For the same molecule, the GI50 (IGROV-1) was > 100 µM (inactive), the GI50 (SK-MEL-28) was > 100 µM (inactive) and the GI50 (SN12C) was > 100 µM (inactive). For the same molecule, the GI50 (RXF 393) was > 100 µM (inactive), the GI50 (HOP-62) was > 100 µM (inactive) and the GI50 (HOP-92) was > 100 µM (inactive). The GI50 (CCRF-CEM) was > 100 µM (inactive), the GI50 (SK-OV-3) was > 100 µM (inactive) and the GI50 (XF498) was > 100 µM (inactive). The GI50 (SNB-78) was > 100 µM (inactive), the GI50 (A549) was > 100 µM (inactive) and the GI50 (UO-31) was > 100 µM (inactive). For the same molecule, the GI50 (MOLT-4) was > 100 µM (inactive), the GI50 (UACC-62) was > 100 µM (inactive) and the GI50 (TK-10) was > 100 µM (inactive). For the same molecule, the GI50 (A498) was > 100 µM (inactive), the GI50 (LXFL 529) was > 100 µM (inactive) and the GI50 (LOX IMVI) was > 100 µM (inactive). The GI50 (SW-620) was > 100 µM (inactive), the GI50 (M19-MEL) was > 100 µM (inactive) and the GI50 (UACC-257) was > 100 µM (inactive). The GI50 (NCI-H460) was > 100 µM (inactive), the GI50 (Malme-3M) was > 100 µM (inactive) and the GI50 (SF-295) was > 100 µM (inactive). For the same molecule, the GI50 (ACHN) was > 100 µM (inactive), the GI50 (SF-539) was > 100 µM (inactive) and the GI50 (HT-29) was > 100 µM (inactive). For the same molecule, the GI50 (NCI-H522) was > 100 µM (inactive), the GI50 (OVCAR-4) was > 100 µM (inactive) and the GI50 (HL-60) was > 100 µM (inactive). For the same molecule, the GI50 (K562) was > 100 µM (inactive), the GI50 (SNB-75) was > 100 µM (inactive) and the GI50 (OVCAR-3) was > 100 µM (inactive). The GI50 (CAKI-1) was > 100 µM (inactive), the GI50 (HCT-116) was > 100 µM (inactive) and the GI50 (SR) was > 100 µM (inactive). For the same molecule, the GI50 (OVCAR-5) was > 100 µM (inactive), the GI50 (RPMI-8226) was > 100 µM (inactive) and the GI50 (KM-20L2) was > 100 µM (inactive). The GI50 (SK-MEL-5) was > 100 µM (inactive), the GI50 (NCI-H23) was > 100 µM (inactive) and the GI50 (DLD-1) was > 100 µM (inactive).

Source: ChEMBL document CHEMBL1201862, “PubChem BioAssay data set” (2004)
